Each structure is given as a SMILES string. Where two headings read alike, the source gives them in different places.

For assay [1], the system named is Du145 prostate cancer cells. More on the design: method as in earlier work. The following applies: MTT, same method, taken from the literature; ref [18],[46],[47]; read-out: GI50 ± SEM, Du145; cited from earlier work.
Assay [2] has as its system BE2-C neuroblastoma cells. More on the design: method as in earlier work. To be noted: MTT, same method, taken from the literature; ref [18],[46],[47]; read-out: GI50 ± SEM, BE2-C; cited from earlier work.
The subject of assay [3] is MIA pancreas cancer cells. More on the design: method as in earlier work. To be noted: MTT, same method, taken from the literature; ref [18],[46],[47]; read-out: GI50 ± SEM, MIA; cited from earlier work.
The subject of assay [4] is non-cancerous MCF10A breast cell line. More on the design: method as in earlier work. To be noted: MTT, same method, taken from the literature; ref [18],[46],[47]; read-out: GI50 ± SEM, MCF10A; cited from earlier work.
The next assay concerns SJ-G2 glioblastoma cells. Also on record: method as in earlier work. To be noted: MTT, same method, taken from the literature; ref [18],[46],[47]; read-out: GI50 ± SEM, SJ-G2; cited from earlier work.
In assay [5] the test system is ADDP (subclone of A2780) versus A2780 ovarian cancer cell lines. The assay can be described thus: Resistance factor, GI50 in ADDP/GI50 in A2780. The format is cell-based.
Assay [6] concerns cisplatin-resistant ADDP ovarian (subclone of A2780) cancer cells. Also on record: method as in earlier work. To be noted: MTT, same method, taken from the literature; ref [18],[46],[47]; read-out: GI50 ± SEM, ADDP; cited from earlier work.
For assay [7], the system named is A2780 ovarian cancer cells. Also on record: method as in earlier work. To be noted: MTT, same method, taken from the literature; ref [18],[46],[47]; read-out: GI50 ± SEM, A2780; cited from earlier work.
A further assay deals with HT29 colon cancer cells. Also on record: method as in earlier work. To be noted: MTT, same method, taken from the literature; ref [18],[46],[47]; read-out: GI50 ± SEM, HT29; cited from earlier work.
Assay [8] concerns MCF-7 breast cancer cells. Also on record: method as in earlier work. To be noted: MTT, same method, taken from the literature; ref [18],[46],[47]; read-out: GI50 ± SEM, MCF-7; cited from earlier work.
The next assay concerns H460 lung cancer cells. Also on record: method as in earlier work. To be noted: MTT, same method, taken from the literature; ref [18],[46],[47]; read-out: GI50 ± SEM, H460; cited from earlier work.
Another assay relates to U87 glioblastoma cells. Also on record: method as in earlier work. The following applies: MTT, same method, taken from the literature; ref [18],[46],[47]; read-out: GI50 ± SEM, U87; cited from earlier work.
A further assay concerns A431 skin cancer cells. Also on record: method as in earlier work. To be noted: MTT, same method, taken from the literature; ref [18],[46],[47]; read-out: GI50 ± SEM, A431; cited from earlier work.

Consider `Cc1c(C)c2ccc[n+]3c2c2c1ccc[n+]2[Pt-2]31[NH2+][C@H]2CCCC[C@@H]2[NH2+]1.[Cl-].[Cl-]` [56MESS(II)], for which the GI50 (usually the concentration at which growth is held to half of that of the control) in assay [1] is 10 ± 1.3 nM; in assay [2], 86 ± 3 nM; in assay [3] it was 22 ± 0.88 nM; in assay [4] it was 25 ± 10 nM; in the assay on SJ-G2 glioblastoma cells, 150 ± 6.7 nM; in assay [6], 27 ± 4.1 nM. Further, the GI50 is 39 ± 7.7 nM in assay [7]; 15 ± 6.2 nM with HT29 colon cancer cells; 33 ± 12 nM in assay [8]; 28 ± 4.7 nM in the assay on H460 lung cancer cells; 76 ± 8.7 nM with U87 glioblastoma cells; 36 ± 11 nM in the assay on A431 skin cancer cells. The “Resistance factor (RF)” value in assay [5] was 0.692.
In the case of `Cc1c(C)c2ccc[n+]3c2c2c1ccc[n+]2[Pt-2]31([OH])([OH])[NH2+][C@H]2CCCC[C@@H]2[NH2+]1.O=[N+]([O-])[O-].O=[N+]([O-])[O-]` [56MESS(IV)], the GI50 is 15 ± 2.6 nM in assay [1]; 240 ± 22 nM in assay [2]; 43 ± 2.5 nM in assay [3]; 61 ± 7.3 nM in assay [4]; 210 ± 45 nM with SJ-G2 glioblastoma cells; 170 ± 120 nM in assay [6]. In addition, the GI50 was 56 ± 7.1 nM in assay [7]; 36 ± 7.1 nM in the assay with HT29 colon cancer cells; 480 ± 140 nM in assay [8]; 190 ± 150 nM in the assay on H460 lung cancer cells; 190 ± 23 nM in the assay on U87 glioblastoma cells; 120 ± 22 nM in the assay with A431 skin cancer cells. In addition, in [5], the “Resistance factor (RF)” value is 3.036.
Consider `N.N.O=C([O-])C1(C(=O)[O-])CCC1.[Pt+2]` [Carboplatin, carboplatin], for which the GI50 in assay [1] was 14700 ± 1200 nM; in assay [2] it was 18700 ± 1200 nM; in [3] it was above 50000 nM; in assay [4] it was above 50000 nM; in the assay with SJ-G2 glioblastoma cells, 5700 ± 200 nM; in [6], above 50000 nM. Besides, the GI50 in assay [7] was 9200 ± 2900 nM; in the assay with HT29 colon cancer cells, above 50000 nM; in assay [8], above 50000 nM; in the assay with H460 lung cancer cells it was 14000 ± 1000 nM; in the assay on U87 glioblastoma cells, above 50000 nM; in the assay with A431 skin cancer cells, 24300 ± 2200 nM.
In the case of `N.N.[Cl][Pt][Cl]` [Cisplatin, cisplatin], the GI50 is 1200 ± 100 nM in assay [1]; 1900 ± 200 nM in assay [2]; 7500 ± 1300 nM in assay [3]; 5200 ± 520 nM in assay [4]; 400 ± 100 nM in the assay on SJ-G2 glioblastoma cells; 28000 ± 1700 nM in assay [6]. For the same molecule, the GI50 in [7] is 1000 ± 100 nM; in the assay with HT29 colon cancer cells, 11300 ± 1900 nM; in assay [8], 6500 ± 800 nM; in the assay with H460 lung cancer cells, 900 ± 200 nM; with U87 glioblastoma cells, 3800 ± 1100 nM; in the assay with A431 skin cancer cells it was 2400 ± 300 nM. In addition, the “Resistance factor (RF)” value in assay [5] is listed as 28.00; in assay [5] (listed as cisplatin), 28.
In the case of `[Cl-].[Cl-].c1cc2ccc3ccc[n+]4c3c2[n+](c1)[Pt-2]41[NH2+][C@H]2CCCC[C@@H]2[NH2+]1` [PHENSS(II)], the GI50 is 110 ± 27 nM in assay [1]; 390 ± 60 nM in assay [2]; 240 ± 22 nM in assay [3]; 240 ± 60 nM in [4]; 440 ± 55 nM in the assay with SJ-G2 glioblastoma cells; 230 ± 49 nM in assay [6]. For the same molecule, the GI50 in assay [7] was 290 ± 37 nM; in the assay with HT29 colon cancer cells it was 87 ± 27 nM; in assay [8], 250 ± 41 nM; in the assay with H460 lung cancer cells, 300 ± 32 nM; in the assay on U87 glioblastoma cells, 1200 ± 340 nM; in the assay on A431 skin cancer cells it was 340 ± 100 nM. Besides, the “Resistance factor (RF)” value in assay [5] amounted to 0.793.
On to `O=[N+]([O-])[O-].O=[N+]([O-])[O-].[OH][Pt-2]12([OH])([NH2+][C@H]3CCCC[C@@H]3[NH2+]1)[n+]1cccc3ccc4ccc[n+]2c4c31` [PHENSS(IV)], for which the GI50 is 310 ± 92 nM in assay [1]; 3000 ± 530 nM in [2]; 3400 ± 2200 nM in assay [3]; 1700 ± 200 nM in assay [4]; 1700 ± 350 nM in the assay on SJ-G2 glioblastoma cells; 1300 ± 350 nM in assay [6]. The GI50 in assay [7] is 800 ± 84 nM; in the assay with HT29 colon cancer cells it was 710 ± 300 nM; in assay [8] it was 16000 ± 4500 nM; in the assay with H460 lung cancer cells, 1700 ± 200 nM; in the assay with U87 glioblastoma cells it was 4900 ± 610 nM; with A431 skin cancer cells, 4300 ± 530 nM. Moreover, the “Resistance factor (RF)” value in [5] is listed as 1.625.

Source of the values: paper PMC9853328, “Potent Platinum(IV) Prodrugs That Incorporate a Biotin Moiety to Selectively Target Cancer Cells” (Pharmaceutics, 2022).
